{"source": "paper PMC4163096", "about": "(Bioorganic & medicinal chemistry letters, 2014)", "key": {"[1]": {"target": "T1, TSPO (Rattus norvegicus, UniProt P16257)", "conditions": "cited from earlier work; for Ki: read-out: Ki for TSPO in C6 glioma, C6 glioma"}, "[2]": {"assay": "Radio-TLC analysis of plasma samples taken during PET scan", "format": "in vivo, male Wistar rats", "conditions": "samples at 2, 12, 30, 60 min, n=2, preliminary"}, "[3]": {"target": "T1, TSPO", "assay": "Radiometric TSPO binding assay, [3H]PK11195 displacement in heart lysate", "set-up": "species or system athymic nude rat", "conditions": "for Ki: read-out: Heart Ki, versus [3H]PK11195, Ki ± S.E.M., triplicate"}, "[4]": {"target": "T1, TSPO", "assay": "Radiometric TSPO binding assay, [3H]PK11195 displacement in kidney lysate", "set-up": "species or system athymic nude rat", "conditions": "read-out: Kidney Ki, low-affinity binding (mixed affinity binding), versus [3H]PK11195, Ki ± S.E.M., low-affinity component"}}, "note": "Read-outs that look alike come from different tables or passages of the source."}
{"smiles": "CCc1cc(CC)n2nc(-c3ccc(OCCF)cc3)c(CC(=O)N(CC)CC)c2n1", "note": "[2b]", "values": [{"measurement": "Ki", "setting": "[1]", "value": 0.27, "unit": "nM"}]}
{"smiles": "CCc1cc(CC)n2nc(-c3ccc(OCC[18F])cc3)c(CC(=O)N(CC)CC)c2n1", "note": "[[^18F]-2b, 2-(5,7-diethyl-2-(4-(2-[^18F]fluoroethoxy)phenyl)pyrazolo[1,5-a]pyrimidin-3-yl)-N,N– diethylacetamide]", "values": [{"measurement": "enhancement in affinity compared to [18F]-2a", "setting": "[1]; TSPO affinity", "value": 36, "unit": "fold"}]}
{"smiles": "CN(C)C(=O)Cc1nn(-c2cccc([18F])n2)c(=O)c2c1c1ccc(Cl)cc1n2C", "note": "[[^18F]-14, 7-chloro-N,N,5-trimethyl-4-oxo-3(6-[^18F]fluoropyridin-2-yl)-3,5-dihydro-4H-pyridazino[4,5-b]indole-1-acetamide]", "values": [{"measurement": "% parent at 60 min", "setting": "[2]", "value": "> 90", "unit": "%"}]}
{"smiles": "COc1ccc(OC)c(CN(C(=O)CF)c2ccccc2Oc2ccccc2)c1", "note": "[compound 1]", "values": [{"measurement": "Ki", "setting": "[1]", "value": 6.17, "unit": "nM"}]}
{"smiles": "CN(C)C(=O)Cc1nn(-c2cccc([N+](=O)[O-])c2)c(=O)c2c1c1ccc(Cl)cc1n2C", "note": "[compound 11]", "values": [{"measurement": "Ki", "setting": "[3]", "value": "0.00118 ± 9e-05", "unit": "nM"}]}
{"smiles": "CN(C)C(=O)Cc1nn(-c2ccc(F)cc2)c(=O)c2c1c1ccc(Cl)cc1n2C", "note": "[compound 12]", "values": [{"measurement": "Ki", "setting": "[4]", "value": 0.969, "unit": "nM"}]}
{"smiles": "CN(C)C(=O)Cc1nn(-c2ccccn2)c(=O)c2c1c1ccc(Cl)cc1n2C", "note": "[compound 13]", "values": [{"measurement": "Ki", "setting": "[3]", "value": "4.94 ± 0.662", "unit": "nM"}, {"measurement": "Heart Ki", "setting": "[3]; versus [3H]PK11195, Ki ± S.E.M., triplicate", "value": "did not appreciably bind TSPO"}]}
